Assay results: publication PMC11374660, “The novel family of Warbicin® compounds inhibits glucose uptake both in yeast and human cells and restrains cancer cell proliferation” (Frontiers in Oncology, 2024)

Columns and labels:
[1] = system: glucose uptake by tps1Δ yeast cells; test: Zero-trans uptake of radioactive glucose in tps1Δ yeast cells; format: cell-based, S. cerevisiae; conditions: tps1∆ cells, 2.5 mM glucose; read-out: IC50 values for 2.5 mM glucose uptake in tps1∆ cells
Description: (§1) Zero-trans uptake of radioactively labeled [U-^14C]glucose, [U-^14C]fructose or [U-^14C]galactose by S. cerevisiae cells was determined in accordance with previous studies ([45], [75]). Cells were grown on different carbon sources depending on the experiment. For measuring glucose uptake activity in the tps1Δ and tps1Δ hxtΔ strains, cells were grown on YP medium containing 325 mM glycerol (measurement of 10 s). Typically, for compound characterization and kinetic studies in wild type and tps1Δ strains, cells were (pre)grown on Complete Synthetic medium supplemented with 110 mM galactose (measurement of 10 s). In the experiments on the influence of hexokinase activity on the sugar uptake rate, the measurement duration was shortened to 5 s and cells were always grown on YP medium containing 325 mM glycerol and 430 mM ethanol. After harvesting, cells were washed twice with ice-cold 25 mM MES-buffer pH 6, and resuspended in their respective medium without sugar to a final concentration of 45 mg (wet weight)/mL. The amount of added tracer was estimated to give a response close to at least 1000 counts per min in order to adequately counter background noise. Cells were first preincubated for 10 min at 30°C with the compound to acclimate the cells to the temperature and to allow adequate interaction with the compound prior to uptake. Next, hexose sugar was mixed with the cell suspension, which was then incubated at 30°C for 5 or 10 s, depending on the experiment, after which the cells were rapidly filtered over a glass microfiber filter (Whatman GF/C) and washed three times with ice-cold dH2O. The loaded filter was transferred to a scintillation vial containing 3 mL liquid scintillation cocktail (Ultima-Flo M, Perkin Elmer) and counted using the Hidex 300 SL. Three blank measurements per strain were typically included to account for background signal, for which the cells were first quenched before adding the radioactive label.

[2] = system: A549 lung adenocarcinoma cells; test: Proliferation of A549 lung adenocarcinoma cells; format: cell-based, human; conditions: for Selected from primary screen for growth inhibition of A549 cells at 50 µM: RPMI 1 mM glucose; for Selected for having an IC50 ratio (10 mM glucose : 1 mM glucose) of A549 growth higher than WBC-A: ratio of IC50 on 10 mM and 1 mM glucose, compared to WBC-A
Description: For both adherent A549 and MCF10A H-RAS^V12 cell lines, growth curves were established using the IncuCyte® ZOOM technology. By collecting phase contrast images, the IncuCyte® software provides a calculated confluency percentage from which growth curves can be deducted. The cell number/density was measured by calculating the confluency of phase objects (cells) sticking on the bottom of the well. Cells were seeded at a density of 1000 - 1500 cells/well in a Nunc-Edge™ 96-well plate (Thermo Fisher Scientific) and growth was typically measured over 3 to 5 days. For the measurement of apoptosis induction using the MCF10A H-RAS^V12 cell line, the IncuCyte® Caspase-3/7 green dye was added to the medium in the recommended concentration at the beginning of the growth curve experiment. Apoptosis was detected by taking fluorescent images by excitation at 488 nm followed by IncuCyte® software analysis. Cell growth of the KMS-12-PE multiple myeloma cell line, which grows in suspension, was measured by manual cell counting. Cells were initially seeded at a density of 10^4 cells/well and incubated for 4 days after which the cell number was counted. For all cell lines, the same medium used for pregrowth was also used for the growth curve experiment, albeit with different glucose concentrations depending on the experimental design. With compound administration, the final concentration of DMSO never exceeded 0.1%. Typically, at least four technical repeats were included per condition.

yeast tps1Δ strain = test: Growth (rescue) of the yeast tps1Δ strain on galactose with or without glucose; format: cell-based, S. cerevisiae; conditions: 2.5 mM glucose
Description: Growth curves were made by measuring OD595 in a 96-well plate using the Multiskan™ FC Microplate Photometer (Thermo Fisher Scientific). Typically, for tps1Δ rescue experiments, cells were (pre)grown in Complete Synthetic medium containing 110 mM galactose. Compounds were always added 10 min prior to glucose addition to ensure maximal interaction between the cells and compounds. Cells originating from the preculture were harvested, washed in medium without sugar, after which they were resuspended to an OD of 0.1 in 200 µL of the appropriate medium. At least three technical replicates were included per condition. OD595 was measured at 30°C every 30 min with a 10-min shaking interval.

[3] = system: glucose uptake by wild type yeast cells; test: Zero-trans uptake of radioactive glucose in wild type yeast cells; format: cell-based, S. cerevisiae
Description: as §1

[4] = system: hxk2Δ hxk1Δ GLK1 yeast cells; test: Sugar uptake in hxk2Δ hxk1Δ GLK1 yeast cells; format: cell-based, S. cerevisiae; conditions: 250 µM CCCP or 50 µM WBC-A 10 min prior; 100 mM maltose with the tracer
Description: as §1

SMILES	IC50 [1] [µM]	Selected from primary screen for growth inhibition of A549 cells at 50 µM ([2]; 50 µM)	Rescue of the tps1∆ strain on 2.5 mM glucose at 100 µM (yeast tps1Δ strain)	Minimal rescue concentration for growth of tps1∆ cells on 2.5 mM glucose (yeast tps1Δ strain) [µM]	Selected for having an IC50 ratio (10 mM glucose : 1 mM glucose) of A549 growth higher than WBC-A [2]	inhibition of A549 cell proliferation in prescreening ([2]; 50 µM, 1 mM glucose, three days)	type of inhibition of glucose uptake (Lineweaver-Burk) [3]	IC50 ([3]; radioactive glucose, 10 s, read-out: IC50 for inhibition of 2.5 mM glucose uptake) [µM]	Ki ([3]; read-out: Ki (Dixon plot) for glucose uptake) [µM]	fructose uptake at tracer concentration [4]	glucose uptake at tracer concentration [4]
Cc1nc(SCC(=O)N(C)CCC#N)c2c(-c3cccs3)csc2n1 [WBC-7B]	5.41	No	Yes	6.25	–	–	–	–	–	–	–
Cc1nc(SCC(N)=O)c2c(-c3cccs3)csc2n1 [WBC-14A]	27.9	No	Yes	25	–	–	–	–	–	–	–
Cc1nc(Sc2nnc(C(F)(F)F)n2C)c2c(-c3cccs3)csc2n1 [WBC-54C]	64.7	Yes	Yes	50	Lower IC50 ratio	–	–	–	–	–	–
CCn1c(Sc2nc(C)nc3scc(-c4cccs4)c23)nnc1-c1ccncc1 [WBC-43C]	8.93	Yes	Yes	12.5	–	–	–	–	–	–	–
Cc1nc(SCCO)c2c(-c3cccs3)csc2n1 [WBC-47A]	15.6	Yes	Yes	6.25	Lower IC50 ratio	–	–	–	–	–	–
Cc1nc(Sc2nnc(-c3ccncc3)n2C)c2c(-c3cccs3)csc2n1 [WBC-26A]	5.35	Yes	Yes	25	Lower IC50 ratio	–	–	–	–	–	–
Cc1nc(SCCN2CCOCC2)c2c(-c3cccs3)csc2n1 [WBC-44A]	61.8	Yes	Yes	50	Lower IC50 ratio	–	–	–	–	–	–
Cc1nc(Sc2nnc(-c3cccnc3)n2C)c2c(-c3cccs3)csc2n1 [WBC-23A]	8.6	Yes	Yes	25	Lower IC50 ratio	–	–	–	–	–	–
Cc1nc(SCC(=O)NC(C)(C)C)c2c(-c3cccs3)csc2n1 [WBC-32B]	30.3	Yes	Yes	12.5	Lower IC50 ratio	–	–	–	–	–	–
CCn1c(CCC(N)=O)nnc1Sc1nc(C)nc2scc(-c3cccs3)c12 [WBC-16C]	49.6	Yes	Yes	50	Lower IC50 ratio	–	–	–	–	–	–
Cc1nc(SCC(=O)Nc2cc(C)on2)c2c(-c3cccs3)csc2n1 [WBC-10C]	24.8	Yes	Yes	6.25	Lower IC50 ratio	–	–	–	–	–	–
Cc1nc(Sc2nnc3n2CCC(CN=[N+]=[N-])CC3)c2c(-c3cccs3)csc2n1 (centres unmarked) [WBC-87C]	11.1	Yes	Yes	12.5	Lower IC50 ratio	–	–	–	–	–	–
COC(=O)CSc1nc(C)nc2scc(-c3cccs3)c12 [WBC-53A]	26.8	No	Yes	12.5	–	–	–	–	–	–	–
C=C1[C@@H](C)[C@H]2[C@H](Cc3ccccc3)NC(=O)[C@]23OC(=O)/C=C/[C@H](O)CCC[C@@H](C)C/C=C/[C@H]3[C@@H]1O [Cytochalasin B, reference compound]	–	–	–	–	–	the strongest inhibitor of cell proliferation in this assay	–	–	–	–	–
CCN(C(=O)CSc1nc(C)nc2scc(-c3cccs3)c12)C1CCS(=O)(=O)C1 (centres unmarked) [WBC-2C]	2	Yes	Yes	1.562	Lower IC50 ratio	–	mixed type of inhibition	1.98	1.45	–	–
Cc1nc(SCC(=O)NC(N)=O)c2c(-c3cccs3)csc2n1 [WBC-6B]	10.2	Yes	Yes	12.5	Lower IC50 ratio	–	–	–	–	–	–
Cc1nc(SCC(=O)N2CC(C)OC(C)C2)c2c(-c3cccs3)csc2n1 (centres unmarked) [WBC-5B]	22.5	No	Yes	12.5	–	–	–	–	–	–	–
CC(=O)NCc1ccc(C(=O)CSc2nc(C)nc3scc(-c4cccs4)c23)o1 [WBC-29B]	9.23	No	Yes	6.25	–	–	–	–	–	–	–
N#CC(C#N)=NNc1cccc(Cl)c1 [CCCP, reference compound]	–	–	–	–	–	–	–	–	–	not that of fructose	lowered the glucose uptake rate
COCCCNC(=O)CSc1nc(C)nc2scc(-c3cccs3)c12 [WBC-15B]	32.7	No	Yes	25	–	–	–	–	–	–	–
CCCc1nnc(Sc2nc(C)nc3scc(-c4cccs4)c23)[nH]1 [WBC-50C]	67.8	Yes	Yes	50	Lower IC50 ratio	–	–	–	–	–	–
Cc1nc(SCCN2CCOC2=O)c2c(-c3cccs3)csc2n1 [WBC-26C]	23.8	No	Yes	25	–	–	–	–	–	–	–
